Assay results from US6696404B1, “Antibacterial composition having xanthorrizol” (LG Household & Healthcare, priority 1999, dated 2004).
≈ marks a conversion by molar mass, not a printed value.

Assays:
Streptococcus mutans [1] = assay: Minimum inhibitory concentration of active fractions; assay type: cell-based
Method: The crude extract, prepared in Example 1-1 was applied to a silica gel column chromatography: the crude extract was applied to a column chromatography(5×43 cm) filled with silica gel(Merck, U.S.A.) of 70 to 230 mesh, and eluted with a mixed gradient of hexane and ethylacetate (10:1→3:1→1:1). Then, thin layer chromatography(TLC) was performed with the active fractions obtained in the course of chromatographic procedure to give 8 different fractions(fractions I to VIII ) with similar retention on the TLC plate. Antibacterial activity of the fractions was measured in terms of minimum inhibitory concentration(MIC), and compared to that of vancomycin.

[2] = Antibacterial activity of acetylated single compound; assay type: cell-based; conditions: acetylated form
Method: Since fraction II had some impurities, acetylation of the fraction was carried out to change its polarity as a procedure to obtain a single compound with antibacterial activity: 0.5 g of fraction II was dissolved in 5 ml pyridine, added with 5 ml of acetic anhydride in a drop-wise manner at ice-cold temperature, and stirred at room temperature for more than 15 hours. The reactant was subjected to partition extraction with 100 ml of ice-cold water once, and subsequently 100 ml of ethylacetate twice. The ethylacetate phase thus obtained was washed with 5% HCl, NaHCO3 and NaCl, dehydrated with anhydrous MgSO4, filtered and condensed under a reduced pressure. The resultant was finally applied onto a silica gel column(4.7×50 cm), and eluted with a solvent mixture of hexane and ethylacetate(15:1, v/v) to give an acetylated single compound. […] Then, 2 ml of 5% KOH was added to the compound, reacted with stirring for more than 2 hours, and neutralized using cation exchange resin(DOWEX50WX4-400), followed by filtration and condensation to give a single isolated compound. Thereafter, its molecular weight was measured with EI-MS(VG Platform II, FISIONS, 15 eV), and chemical identification was conducted using analytical instruments of ^1H-NMR, ^13C-NMR(400 MHz, CDCl3) and IR(Perkin Elmer spectrum I , DTGS detector). […]

Streptococcus mutans [3] = assay: Viable cell count after xanthorrizol treatment; assay type: cell-based; conditions: xanthorrizol 0.0004%(4 μg/ml); 37° C.
Method: Xanthorrizol was also tested for Streptococcus mutans in a similar manner as described above: xanthorrizol was dissolved in DMSO to give specimens with a concentration of 0.0002%, 0.0004% and 0.0008%, respectively. Then, the specimens were incubated with the microorganism at 37° C. for 1, 2, 5 and 10 minutes, respectively, and subjected to serial 10-fold dilution. After the incubation with the pathogen, viable cell number for Streptococcus mutans was counted. FIG. 3 is a graph showing antibacterial activity of xanthorrizol against Streptococcus mutans in terms of viable cell number, where ♦ represents DMSO, control; ▪, 0.0002% crude extract; Δ, 0.0004% crude extract; x, 0.0008% crude extract, respectively.

Streptococcus mutans [4] = assay: Thermal stability: well diffusion analysis after heating; assay type: cell-based; conditions: 0.1% in DMSO heated 30 minutes
Method: Xanthorrizol was dissolved in DMSO to prepare specimens with a concentration of 0.1%. The specimens were heated for 30 minutes at the temperature of 60° C., 70° C., 80° C., 90° C., 100° C. and 121° C., respectively. Then, antibacterial activity against Streptococcus mutans was determined for each specimen by well diffusion analysis, whose results are shown in Table 13.

[5] = system: Streptococcus salivarius ATCC 9758; assay: MIC by 2-fold dilution; assay type: cell-based; conditions: ATCC9758, 2×10^5 CFU/ml, 30 to 37° C., more than 24 hours
Method: (§1) In addition, minimum inhibitory concentration(MIC, μg/ml) for various microorganisms was determined by performing 2-fold dilution: first, 1 ml of medium was taken into each tube, and 1 ml of xanthorrizol(0.05% in DMSO) was added to only one tube to make 2-fold dilution. Then, serial 2-fold dilution was further carried out for the rest of the tubes, starting from the tube containing xanthorrizol. 100 μl of microorganism was added into each tube prepared by the 2-fold dilution to contain a final cell number of 2×10^5 CFU/ml, and incubated at 30 to 37° C. for more than 24 hours to determine minimum inhibitory concentrations for various test microorganisms(see: Table 12).

[6] = system: Candida albicans ATCC 10231; assay: MIC by 2-fold dilution; assay type: cell-based; conditions: ATCC10231, 2×10^5 CFU/ml, 30 to 37° C., more than 24 hours
Method: as §1

[7] = system: Penicilium citrinum IFO 6352; assay: MIC by 2-fold dilution; assay type: cell-based; conditions: 2×10^5 CFU/ml; 30 to 37° C., more than 24 hours
Method: as §1

[8] = system: Porphyromonas gingivalis W 50; assay: MIC by 2-fold dilution; assay type: cell-based; conditions: W50, 2×10^5 CFU/ml, 30 to 37° C., more than 24 hours
Method: as §1

[9] = system: Cladosporium cladosporioides IFO 6348; assay: MIC by 2-fold dilution; assay type: cell-based; conditions: IFO6348, 2×10^5 CFU/ml, 30 to 37° C., more than 24 hours
Method: as §1

[10] = system: Lactobacillus casei ATCC 4646; assay: MIC by 2-fold dilution; assay type: cell-based; conditions: Lacticaseibacillus casei, ATCC4646; 2×10^5 CFU/ml; 30 to 37° C., more than 24 hours
Method: as §1

[11] = system: Actinomyces viscosus ATCC 15988; assay: MIC by 2-fold dilution; assay type: cell-based; conditions: ATCC15988, 2×10^5 CFU/ml, 30 to 37° C., more than 24 hours
Method: as §1

[12] = system: Saccharomyces cerevisiae ATCC 9763; assay: MIC by 2-fold dilution; assay type: cell-based; conditions: ATCC9763, 2×10^5 CFU/ml, 30 to 37° C., more than 24 hours
Method: as §1

[13] = system: Streptococcus sanguis ATCC 35105; assay: MIC by 2-fold dilution; assay type: cell-based; conditions: ATCC35105, 2×10^5 CFU/ml, 30 to 37° C., more than 24 hours
Method: as §1

[14] = system: Penicilium chrysogenum IFO 5472; assay: MIC by 2-fold dilution; assay type: cell-based; conditions: 2×10^5 CFU/ml; 30 to 37° C., more than 24 hours
Method: as §1

[15] = system: Streptococcus sobrinus ATCC 27351; assay: MIC by 2-fold dilution; assay type: cell-based; conditions: ATCC27351, 2×10^5 CFU/ml, 30 to 37° C., more than 24 hours
Method: as §1

[16] = system: Enterococcus faecalis ATCC 19433; assay: MIC by 2-fold dilution; assay type: cell-based; conditions: ATCC19433, 2×10^5 CFU/ml, 30 to 37° C., more than 24 hours
Method: as §1

[17] = system: Bifidobacterium bifidum ATCC 29521; assay: MIC by 2-fold dilution; assay type: cell-based; conditions: ATCC29521, 2×10^5 CFU/ml, 30 to 37° C., more than 24 hours
Method: as §1

[18] = system: Pityrosporum pacchydermatis ATCC 14522; assay: MIC by 2-fold dilution; assay type: cell-based; conditions: 2×10^5 CFU/ml; 30 to 37° C., more than 24 hours
Method: as §1

[19] = system: Salmonella typhimurium IFO 12529; assay: MIC by 2-fold dilution; assay type: cell-based; conditions: Salmonella enterica; 2×10^5 CFU/ml; 30 to 37° C., more than 24 hours
Method: as §1

[20] = system: Staphylococcus aureus ATCC 12600; assay: MIC by 2-fold dilution; assay type: cell-based; conditions: ATCC12600, 2×10^5 CFU/ml, 30 to 37° C., more than 24 hours
Method: as §1

[21] = system: Streptococcus mutans ATCC 25175; assay: MIC by 2-fold dilution; assay type: cell-based; conditions: ATCC25175, 2×10^5 CFU/ml, 30 to 37° C., more than 24 hours
Method: as §1

[22] = system: Lactobacillus aciophilus ATCC 4356; assay: MIC by 2-fold dilution; assay type: cell-based; conditions: ATCC4356, 2×10^5 CFU/ml, 30 to 37° C., more than 24 hours
Method: as §1

[23] = system: Propionibacterium acnes ATCC 6919; assay: MIC by 2-fold dilution; assay type: cell-based; conditions: Cutibacterium acnes, ATCC6919; 2×10^5 CFU/ml; 30 to 37° C., more than 24 hours
Method: as §1

[24] = system: Streptomyces bikiniensis ATCC 11062; assay: MIC by 2-fold dilution; assay type: cell-based; conditions: ATCC11062, 2×10^5 CFU/ml, 30 to 37° C., more than 24 hours
Method: as §1

[25] = system: Candida glabrata IFO 0622; assay: MIC by 2-fold dilution; assay type: cell-based; conditions: Nakaseomyces glabratus, IFO0622; 2×10^5 CFU/ml; 30 to 37° C., more than 24 hours
Method: as §1

human skin = assay: Skin safety patch test; assay type: in vivo
Streptococcus mutans [26] = assay: Efflux of intracellular macromolecules and ions after xanthorrizol treatment; assay type: cell-based; conditions: 5 and 10 μg/ml xanthorrizol; FIGS. 4a, 4b, 5a, 5b
Method: Streptococcus mutans was treated with 5 and 10 μg/ml of xanthorrizol for 1, 2, 5 and 10 minutes, respectively, to examine the efflux of intracellular macromolecules and ions by the xanthorrizol-mediated cell damage. FIGS. 4a and 4b are graphs showing the efflux of neucleic acid and protein from Streptococcus mutans after xanthorrizol treatment, and FIGS. 5a and 5b, calcium efflux and magnesium efflux, where ♦ represents 0.1% DMSO, control; ▪, Streptococcus mutans treated with 5 μg/ml xanthorrizol; •, Streptococcus mutans treated with 10 μg/ml xanthorrizol, respectively.

the pathogens = assay: Change in cell morphology (TEM) after xanthorrizol treatment; assay type: cell-based; conditions: 10 μg/ml xanthorrizol for 30 minutes
Method: To assess the extent of xanthorrizol-mediated cell damage, 10 μg/ml xanthorrizol was treated to the pathogens for 30 minutes. […] Further, it was assumed that through the efflux of intracellular macromolecules and ions, the permeability of cell wall is increased to accelerate the efflux of intracellular components, which in turn inactivates cellular enzymes and causes the malfunction of cell wall.

Propionibacterium acnes = assay: Viable cell count after xanthorrizol treatment; assay type: cell-based; conditions: xanthorrizol 0.002%; 37° C.
Method: To measure the antibacterial activity of xanthorrizol, it was dissolved in DMSO to give specimens with a concentration of 0.001%, 0.0015% and 0.002%, respectively, and incubated with test microorganisms([…] CFU/ml) at 37° C. for 1, 2, 5, and 10 hours, respectively. Then, they were subjected to serial 10-fold dilution, incubated with an acne-causing pathogen, Propionibacterium acnes for 24 to 48 hours, and counted the viable cell number of the pathogen. FIG. 2 is a graph showing antibacterial activity of xanthorrizol in terms of viable cell numbers, where ♦ represents DMSO, control; ▪, 0.001% crude extract; ▾, 0.0015% crude extract; x, 0.002% crude extract, respectively.

SMILES: CN[C@H](CC(C)C)C(=O)N[C@H]1C(=O)N[C@@H](CC(N)=O)C(=O)N[C@H]2C(=O)N[C@H]3C(=O)N[C@H](C(=O)N[C@H](C(=O)O)c4cc(O)cc(O)c4-c4cc3ccc4O)[C@H](O)c3ccc(c(Cl)c3)Oc3cc2cc(c3O[C@@H]2O[C@H](CO)[C@@H](O)[C@H](O)[C@H]2O[C@H]2C[C@](C)(N)[C@H](O)[C@H](C)O2)Oc2ccc(cc2Cl)[C@H]1O [Vancomycin, vancomycin]
- MIC (Streptococcus mutans [1]): 1 mg/L (≈ 0.69 µM)

SMILES: CC(=O)Oc1cc(C(C)CCC=C(C)C)ccc1C (stereo not shown) [acetylated single compound]
- antibacterial activity [2]: no antibacterial activity

SMILES: CC(C)=CCC[C@@H](C)c1ccc(C)c(O)c1 [xanthorrizol, 1,3,5,10-bisabolatetraen-3-ol]
- Eradication of the microorganism (viable cell number, FIG. 3) (Streptococcus mutans [3]): eradicated almost completely in one minute
- Diameter of Clear Zone (Streptococcus mutans [4]; Treatment Temp. 60 ° C.): 17 mm
- Diameter of Clear Zone (Streptococcus mutans [4]; Treatment Temp. 70 ° C.): 16 mm
- Diameter of Clear Zone (Streptococcus mutans [4]; Treatment Temp. 80 ° C.): 17 mm
- Diameter of Clear Zone (Streptococcus mutans [4]; Treatment Temp. 90 ° C.): 17 mm
- Diameter of Clear Zone (Streptococcus mutans [4]; Treatment Temp. 100 ° C.): 18 mm
- Diameter of Clear Zone (Streptococcus mutans [4]; Treatment Temp. 121 ° C.): 17 mm
- MIC [5]: 4 mg/L (≈ 18.3 µM)
- MIC [6]: 125 mg/L (≈ 573 µM)
- MIC [7]: 250 mg/L (≈ 1150 µM)
- MIC [8]: 32 mg/L (≈ 147 µM)
- MIC [9]: 500 mg/L (≈ 2290 µM)
- MIC [10]: 250 mg/L (≈ 1150 µM)
- MIC [11]: 16 mg/L (≈ 73.3 µM)
- MIC [12]: 250 mg/L (≈ 1150 µM)
- MIC [13]: 4 mg/L (≈ 18.3 µM)
- MIC [14]: 125 mg/L (≈ 573 µM)
- MIC [15]: 4 mg/L (≈ 18.3 µM)
- MIC [16]: 16 mg/L (≈ 73.3 µM)
- MIC [17]: 250 mg/L (≈ 1150 µM)
- MIC [18]: 125 mg/L (≈ 573 µM)
- MIC [19]: 62.5 mg/L (≈ 286 µM)
- MIC [20]: 62.5 mg/L (≈ 286 µM)
- MIC [21]: 2 mg/L (≈ 9.16 µM)
- MIC [22]: 500 mg/L (≈ 2290 µM)
- MIC [23]: 16 mg/L (≈ 73.3 µM)
- MIC [24]: 32 mg/L (≈ 147 µM)
- MIC [25]: 125 mg/L (≈ 573 µM)
- adverse effects such as erythema, scarring or edema on skin (human skin): do not cause adverse effects
- efflux of protein, neucleic acid and ion (Streptococcus mutans [26]): increased dramatically in 5 minutes
- cell morphology (TEM) (the pathogens): cell wall expansion was detected, followed by cell disruption
- Eradication of the microorganism (viable cell number, FIG. 2) (Propionibacterium acnes): eradicated almost completely in one hour
